How the values were obtained:
hnkd = test: Real Time RT-PCR in SW480 cells, hnkd; type: cell-based, human; details: 25 μM; for ΔCT hnkd: relative to β-actin
Protocol: The RNeasy Midi Kit (Qiagen) was used for RNA extraction and Real Time RT-PCR was performed according to the protocol provided with the SYBR Green PCR Master Mix Kit (Perkin Elmer Biosystems, Shelton, Conn.). The primers used for cyclin D1, axin2, hnkd, c-myc, c-jun, and fra-1 amplifications were: cyclin D1 forward primer:5′-[…]-CCTGCTG-3′ (SEQ ID NO: 32) reverse primer: 5′-[…]-3′ (SEQ ID NO: 33) leading to a product size of approximately 300 bp; axin2 forward primer: 5′-[…] GGAAA-CT-3′ (SEQ ID NO: 34) and reverse primer: 5′-[…]-GAGA-3′ (SEQ ID NO: 35); hnkd forward primer: 5′-[…] TTGCGT-3′ (SEQ ID NO: 36) and the reverse primer: 5′-[…] ACGT-3′ (SEQ ID NO: 37); c-myc forward primer: 5′-GAA-[…] CTGC-3′ (SEQ ID NO: 38) and reverse primer: 5′-[…]-G-3′ (SEQ ID NO: 39); c-jun forward primer: 5′-[…]-3′ (SEQ ID NO: 40) and reverse primer: 5′-[…]-3′ (SEQ ID NO: 41); fra-1 forward primer: 5′-ACC-[…]-[…]-3′ (SEQ ID NO: 42) and reverse primer: 5′-[…]-TT-3′ (SEQ ID NO: 43). β-actin was used for normalization. […]
1 μg of mRNA, for each time point, was subjected to Real Time RT-PCR. Expression level of endogenous cyclin D1, c-myc, fibronectin, hnkd, axin2, c-jun, and BMP-4 were measured relative to β-actin. Quantitation of The ΔCycle of Threshold (CT) values was determined by subtracting the average values of each set by the corresponding average values obtained for β-actin. […]
The cyclin D1 gene is inappropriately expressed in many different tumor types, and is known to be a direct target of the Wnt/β-catenin pathway (Shtutman et al., “The cyclin D1 gene is a target of the beta-catenin/LEF-1 pathway,” Proc. Natl. Acad. Sci. USA 96:5522-27 (1999); Tetsu et al., “Beta-catenin regulates expression of cyclin D1 in colon carcinoma cells,” Nature 398:422-26 (1999)). […] Expression level of endogenous cyclin D1, c-myc, fibronectin, hnkd, axin2, c-jun, and BMP-4 were measured relative to β-actin. Quantitation of The ΔCycle of Threshold (CT) values was determined by subtracting the average values of each set by the corresponding average values obtained for β-actin. […]

NFAT reporter construct = test: NFAT reporter assay in stably transfected Jurkat cells; type: cell-based
Protocol: FIG. 1. COMPOUND 1 inhibits β-catenin/TCF transcription. • A(i) and A(ii). Structures of COMPOUND 1, COMPOUND 2, COMPOUND 3, COMPOUND 4, and COMPOUND 5. • B(i) and B(ii). […] SW480 cells (10^5), (FIG. 1B(i)), were transfected with β-catenin/TCF luciferase construct. Cells were treated with COMPOUND 1 (1-64 μM). 24 hours post treatment lysates were prepared and subjected to dual luciferase assay. The data is represented in different form in FIG. 1B(ii). • C. COMPOUND 1 has no effect on NFAT reporter construct. Stably transfected Jurkat cells, right panel, with an NFAT reporter construct, were stimulated with PMA (10 ng/ml)/lonomycin (1 μg/ml), and treated with COMPOUND 1 (0.781-50 μM). 24 hours post treatment lysates were prepared and subjected to dual luciferase assay. All experiments were performed in duplicate and the values plotted as means +/−standard deviation. • D. CBP is the molecular target of COMPOUND 1. Nuclear extracts of SW480 cells were incubated with streptavidin-agarose beads coated with COMPOUND 2 (25 μM). Beads were washed 3 times and the eluted were subjected to gel electrophoresis and immunoblotting, with anti-CBP antibodies. […] The lysates were desalted using G-25 1 cc columns (Pharmacia) to remove the unbound ^14C-labeled-COMPOUND 1, and ^14C-labeled-COMPOUND 1 incorporation was measured.

O=C1C(Cc2ccc(O)cc2)N2C(=O)CCN(C(=O)NCc3ccccc3)C2CN1Cc1cccc2ccccc12 (centres unmarked) [COMPOUND 1]
mRNA hnkd (direction) (hnkd): ↓ | ΔCT hnkd (hnkd; 4 hours): 0.3 | ΔCT hnkd (hnkd; 8 hours): 1.0 | Effect on NFAT reporter construct (NFAT reporter construct; Jurkat cells, PMA/Ionomycin stimulated, 0.781-50 μM, 24 hours): no effect | Selectivity versus other CBP-dependent reporters (NFAT reporter construct; including NFAT, CRE and AP-1 (CRE, AP-1 data not shown)): very good selectivity

Reference: patent publication US7531320B2, “Modulation of β-catenin/TCF-activated transcription” (priority 2003, dated 2009)
